From US20250059214A1, “AMIDE-CONTAINING LONP1 INHIBITOR COMPOUNDS, USES AND METHODS” (Pretzel Therapeutics, Inc., priority 2021, published 2025)

Target: LONP1 (NM_004793.4) (Homo sapiens (Human), UniProt P36776)
Assay: FRET-based assay for LONP1 protease activity using fluorogenic peptide substrate
Assay type: biochemical
Settings: LONP1 15 nM as monomer, substrate 3 μM, 1 hour at 37° C., 15 min pre-incubation with compound; average of a minimum of two repeats
Description: Inhibition of LONP1 protease activity by an inhibitor compound of the disclosure elicits a decrease in the fluorescent signal.
The LONP1-containing mix (10 μL) was incubated with the test compound for 15 min at 37° C. before adding the peptide-containing mix (5 μL). Solutions were dispensed using a small cassette-Multidrop Combi (Thermo Scientific).
Each value is based on an average of a minimum of two repeats.

Sequence of LONP1 (NM_004793.4) (P36776 68-959): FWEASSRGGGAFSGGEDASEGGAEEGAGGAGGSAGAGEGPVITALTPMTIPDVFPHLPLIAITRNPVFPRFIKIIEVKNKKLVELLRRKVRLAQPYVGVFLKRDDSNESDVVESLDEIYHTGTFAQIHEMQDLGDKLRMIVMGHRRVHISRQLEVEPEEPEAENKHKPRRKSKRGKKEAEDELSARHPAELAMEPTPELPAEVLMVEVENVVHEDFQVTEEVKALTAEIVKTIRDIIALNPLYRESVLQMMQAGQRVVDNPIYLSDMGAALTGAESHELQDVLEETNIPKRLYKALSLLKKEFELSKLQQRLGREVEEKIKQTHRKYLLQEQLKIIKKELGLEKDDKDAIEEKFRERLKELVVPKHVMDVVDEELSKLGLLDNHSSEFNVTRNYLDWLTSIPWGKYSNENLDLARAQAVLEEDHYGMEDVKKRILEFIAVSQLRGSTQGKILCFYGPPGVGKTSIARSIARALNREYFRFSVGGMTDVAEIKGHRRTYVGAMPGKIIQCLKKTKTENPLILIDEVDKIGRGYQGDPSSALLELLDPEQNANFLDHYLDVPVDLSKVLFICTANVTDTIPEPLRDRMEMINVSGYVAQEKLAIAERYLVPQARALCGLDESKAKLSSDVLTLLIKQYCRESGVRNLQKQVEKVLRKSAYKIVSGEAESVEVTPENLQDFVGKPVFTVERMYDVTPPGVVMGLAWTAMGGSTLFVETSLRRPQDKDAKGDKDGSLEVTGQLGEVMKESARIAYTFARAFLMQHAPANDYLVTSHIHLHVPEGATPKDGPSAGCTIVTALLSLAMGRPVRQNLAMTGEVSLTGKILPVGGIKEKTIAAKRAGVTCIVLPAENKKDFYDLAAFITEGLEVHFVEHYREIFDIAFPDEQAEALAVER

CC(C)C[C@H](NC(=O)[C@@H](CC(=O)N1CCOCC1)NC(=O)c1cnccn1)B(O)O [Compound 3, ((R)-3-methyl-1-((R)-4-morpholino-4-oxo-2-(pyrazine-2-carboxamido)butanamido)butyl)boronic acid] gave an IC50 of 50 to 500 nM.

O=C(N[C@H](CC(=O)N1CCOCC1)C(=O)N[C@@H](CCc1ccccc1)B(O)O)c1cnccn1 [Compound 4, ((R)-1-((R)-4-morpholino-4-oxo-2-(pyrazine-2-carboxamido)butanamido)-3-phenylpropyl)boronic acid] was tested, and the IC50 was 50 to 500 nM.

Molecule CCCC[C@H](NC(=O)[C@@H](CC(=O)N1CCOCC1)NC(=O)c1cnccn1)B(O)O [Compound 5, ((R)-1-((R)-4-morpholino-4-oxo-2-(pyrazine-2-carboxamido)butanamido)pentyl)boronic acid] has an IC50 of 50 to 500 nM.

Molecule Cc1nc(C)c(C(=O)N[C@H](CC(=O)N2CCOCC2)C(=O)N[C@@H](CC(C)C)B(O)O)o1 [Compound 6, ((R)-1-((R)-2-(2,4-dimethyloxazole-5-carboxamido)-4-morpholino-4-oxobutanamido)-3-methylbutyl)boronic acid] has an IC50 of 50 to 500 nM.

CC(=O)N[C@H](CC(=O)N1CCOCC1)C(=O)N[C@@H](CCCc1ccccc1)B(O)O [Compound 11] gave an IC50 of 50 to 500 nM.

CCC[C@H](NC(=O)[C@@H](CC(=O)N1CCOCC1)NC(=O)c1cnccn1)B(O)O [Compound 18, ((R)-1-((R)-4-morpholino-4-oxo-2-(pyrazine-2-carboxamido)butanamido)butyl)boronic acid] showed an IC50 of 50 to 500 nM.

With CC[C@H](NC(=O)[C@@H](CC(=O)N1CCOCC1)NC(=O)c1cnccn1)B(O)O [Compound 19, ((R)-1-((R)-4-morpholino-4-oxo-2-(pyrazine-2-carboxamido)butanamido)propyl)boronic acid] the IC50 was 50 to 500 nM.

With CN(C)C(=O)N[C@H](CC(=O)N1CCOCC1)C(=O)N[C@@H](CCCc1ccccc1)B(O)O [Compound 20] the IC50 was 50 to 500 nM.

Work on O=C(N[C@H](CC(=O)N1CCOCC1)C(=O)N[C@@H](CCCc1ccccc1)B(O)O)C1CCCCC1 [Compound 22, ((R)-1-((R)-2-(cyclohexanecarboxamido)-4-morpholino-4-oxobutanamido)-4-phenylbutyl)boronic acid] yielded an IC50 of less than 50 nM.

Work on O=C(N[C@H](CC(=O)N1CCOCC1)C(=O)N[C@@H](CCCc1ccccc1)B(O)O)C1CCOCC1 [Compound 23, ((R)-1-((R)-4-morpholino-4-oxo-2-(tetrahydro-2H-pyran-4-carboxamido)butanamido)-4-phenylbutyl)boronic acid] yielded an IC50 of less than 50 nM.

O=C(N[C@H](CC(=O)N1CCOCC1)C(=O)N[C@@H](Cc1ccccc1)B(O)O)c1cnccn1 [Compound 28, ((R)-1-((R)-4-morpholino-4-oxo-2-(pyrazine-2-carboxamido)butanamido)-2-phenylethyl) boronic acid] gave an IC50 of 500 to 5000 nM.

O=C(N[C@@H](CCCc1ccccc1)B(O)O)[C@@H](CC(=O)N1CCOCC1)NS(=O)(=O)c1cccc(Cl)c1 [Compound 29, ((R)-1-((R)-2-((3-chlorophenyl)sulfonamido)-4-morpholino-4-oxobutanamido)-4-phenylbutyl)boronic acid] was tested, and the IC50 was less than 50 nM.

With O=C(N[C@@H](CCCc1ccccc1)B(O)O)[C@@H](CC(=O)N1CCOCC1)NS(=O)(=O)c1ccccc1Cl [Compound 30, ((R)-1-((R)-2-((2-chlorophenyl)sulfonamido)-4-morpholino-4-oxobutanamido)-4-phenylbutyl)boronic acid] the IC50 was 50 to 500 nM.

With O=C(N[C@@H](CCCc1ccccc1)B(O)O)[C@@H](CC(=O)N1CCOCC1)NCc1ccccc1 [Compound 31] the IC50 was 50 to 500 nM.

With O=C(N[C@H](CC(=O)N1CCOCC1)C(=O)N[C@@H](CCCc1ccccc1)B(O)O)O[C@H]1CCOC1 [Compound 32, ((R)-1-((R)-4-morpholino-4-oxo-2-(((((S)tetrahydrofuran-3-yl)oxy)carbonyl)amino)butanamido)-4-phenylbutyl)boronic acid] the IC50 was less than 50 nM.

O=C(N[C@@H](CCCc1ccccc1)B(O)O)[C@H](CC(=O)N1CCOCC1)NS(=O)(=O)c1ccccc1 [Compound 33, ((R)-1-((S)-4-morpholino-4-oxo-2-(phenylsulfonamido)butanamido)-4-phenylbutyl)boronic acid] was tested, and the IC50 was less than 50 nM.

CC(C)(C)OC(=O)N(Cc1ccccc1)[C@H](CC(=O)N1CCOCC1)C(=O)N[C@@H](CCCc1ccccc1)B(O)O [Compound 34, ((R)-1-((R)-2-(benzyl(tert-butoxycarbonyl)amino)-4-morpholino-4-oxobutanamido)-4-phenylbutyl)boronic acid] showed an IC50 of 500 to 5000 nM.

For O=C(N[C@H](CC(=O)N1CCOCC1)C(=O)N[C@@H](CCCc1ccccc1)B(O)O)c1cc(Cl)ccc1Cl [Compound 35, ((R)-1-((R)-2-(2,5-dichlorobenzamido)-4-morpholino-4-oxobutanamido)-4-phenylbutyl)boronic acid], the IC50 was less than 50 nM.

For O=C(N[C@H](CC(=O)N1CCOCC1)C(=O)N[C@@H](CCCc1ccccc1)B(O)O)O[C@@H]1CCOC1 [Compound 36, ((R)-1-((R)-4-morpholino-4-oxo-2-(((((R)-tetrahydrofuran-3-yl)oxy)carbonyl)amino)butanamido)-4-phenylbutyl)boronic acid], the IC50 was less than 50 nM.

O=C(N[C@@H](CCCc1ccccc1)B(O)O)[C@@H](CC(=O)N1CCOCC1)NS(=O)(=O)c1cc(Cl)ccc1Cl [Compound 37, ((R)-1-((R)-2-((2,5-dichlorophenyl)sulfonamido)-4-morpholino-4-oxobutanamido)-4-phenylbutyl)boronic acid] showed an IC50 of less than 50 nM.

Molecule CC(C)NC(=O)N[C@H](CC(=O)N1CCOCC1)C(=O)N[C@@H](CCCc1ccccc1)B(O)O [Compound 38, ((R)-1-((R)-2-(3-isopropylureido)-4-morpholino-4-oxobutanamido)-4-phenylbutyl)boronic acid] has an IC50 of 50 to 500 nM.

In the case of O=C(N[C@@H](CCCc1ccccc1)B(O)O)[C@@H](CC(=O)N1CCOCC1)NS(=O)(=O)c1cnccn1 [Compound 39, ((R)-1-((R)-4-morpholino-4-oxo-2-(pyrazine-2-sulfonamido)butanamido)-4-phenylbutyl)boronic acid], the IC50 is reported as 50 to 500 nM.

O=C(N[C@@H](CCCc1ccccc1)B(O)O)[C@@H](CC(=O)N1CCOCC1)NCCc1ccccc1 [Compound 40, ((R)-1-((R)-4-morpholino-4-oxo-2-(phenethylamino)butanamido)-4-phenylbutyl)boronic acid] showed an IC50 of 50 to 500 nM.

CC(C)(C)OC(=O)N(CCc1ccccc1)[C@H](CC(=O)N1CCOCC1)C(=O)N[C@@H](CCCc1ccccc1)B(O)O [Compound 41, ((R)-1-((R)-2-((tert-butoxycarbonyl)(phenethyl)amino)-4-morpholino-4-oxobutanamido)-4-phenylbutyl)boronic acid] was tested, and the IC50 was 500 to 5000 nM.

O=C(N[C@@H](CCCc1ccccc1)B(O)O)[C@@H](CC(=O)N1CCOCC1)NC(=O)N1CCCC1 [Compound 42, ((R)-1-((R)-4-morpholino-4-oxo-2-(pyrrolidine-1-carboxamido)butanamido)-4-phenylbutyl)boronic acid] gave an IC50 of 50 to 500 nM.

CNC(=O)N[C@H](CC(=O)N1CCOCC1)C(=O)N[C@@H](CCCc1ccccc1)B(O)O [Compound 43, ((R)-1-((R)-2-(3-methylureido)-4-morpholino-4-oxobutanamido)-4-phenylbutyl)boronic acid] gave an IC50 of 50 to 500 nM.

O=C(N[C@@H](CCCc1ccccc1)B(O)O)[C@@H](CC(=O)N1CCOCC1)NC(=O)N1CC[C@@H](O)C1 [Compound 44, ((R)-1-((R)-2-((R)-3-hydroxypyrrolidine-1-carboxamido)-4-morpholino-4-oxobutanamido)-4-phenylbutyl)boronic acid] was tested, and the IC50 was 50 to 500 nM.

O=C(N[C@@H](CCCc1ccccc1)B(O)O)[C@@H](CC(=O)N1CCOCC1)NC(=O)N1CC[C@H](O)C1 [Compound 45, ((R)-1-((R)-2-((S)-3-hydroxypyrrolidine-1-carboxamido)-4-morpholino-4-oxobutanamido)-4-phenylbutyl)boronic acid] gave an IC50 of 50 to 500 nM.

O=C(N[C@@H](CCCc1ccccc1)B(O)O)[C@@H](CC(=O)N1CCOCC1)Nc1ccccc1 [Compound 46] gave an IC50 of 50 to 500 nM.

Work on O=C(N[C@H](CC(=O)N1CCOCC1)C(=O)N[C@H]1CCOB1O)c1cnccn1 [Compound 47, N—((R)-1-(((R)-2-hydroxy-1,2-oxaborolan-3-yl)amino)-4-morpholino-1,4-dioxobutan-2-yl)pyrazine-2-carboxamide] yielded an IC50 greater than 5000 nM.

O=C(N[C@@H](CCCc1ccccc1)B(O)O)[C@@H](CC(=O)N1CCOCC1)NC(=O)[C@H]1CCCCO1 [Compound 48, ((R)-1-((R)-4-morpholino-4-oxo-2-((R)-tetrahydro-2H-pyran-2-carboxamido)butanamido)-4-phenylbutyl)boronic acid] showed an IC50 of 50 to 500 nM.

Work on O=C(N[C@H](CC(=O)N1CCOCC1)C(=O)N[C@@H](CCCc1ccccc1)B(O)O)[C@@H]1CCCCO1 [Compound 49, ((R)-1-((R)-4-morpholino-4-oxo-2-((S)-tetrahydro-2H-pyran-2-carboxamido)butanamido)-4-phenylbutyl)boronic acid] yielded an IC50 of 50 to 500 nM.
